Test results published in ChEMBL document CHEMBL1137358, “Synthetic inhibitors of cytochrome P-450 2A6: inhibitory activity, difference spectra, mechanism of inhibition, and protein cocrystallization” (J Med Chem, 2006).
pKi: −log10 of the molar value.

What was measured:
[1] = target: Cytochrome P450 3A4 (Homo sapiens, UniProt P08684); assay: Inhibition of human CYP3A4
[2] = target: T1, Cytochrome P450 2A6 (Homo sapiens, UniProt P11509); assay: Inhibition of human CYP2A6
T1 sequence (P11509 whole entry): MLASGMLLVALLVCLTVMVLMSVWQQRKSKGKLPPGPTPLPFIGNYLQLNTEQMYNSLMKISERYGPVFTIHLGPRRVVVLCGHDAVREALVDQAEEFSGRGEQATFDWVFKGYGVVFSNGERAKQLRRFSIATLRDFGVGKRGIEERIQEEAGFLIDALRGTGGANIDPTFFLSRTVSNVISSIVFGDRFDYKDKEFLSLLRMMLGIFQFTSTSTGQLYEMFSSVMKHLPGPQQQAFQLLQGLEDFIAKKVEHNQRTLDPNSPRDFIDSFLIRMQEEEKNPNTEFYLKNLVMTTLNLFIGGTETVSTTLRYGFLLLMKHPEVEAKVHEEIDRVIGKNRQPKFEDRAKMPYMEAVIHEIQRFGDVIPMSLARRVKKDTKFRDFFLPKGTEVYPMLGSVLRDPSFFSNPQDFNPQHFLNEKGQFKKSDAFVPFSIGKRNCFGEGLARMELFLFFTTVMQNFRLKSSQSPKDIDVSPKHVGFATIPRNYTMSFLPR

[3] = system: CYP2A6 over CYP2B6; assay: Selectivity for CYP2A6 over CYP2B6
[4] = target: Cytochrome P450 2E1 (Homo sapiens, UniProt P05181); assay: Inhibition of human CYP2E1
[5] = system: CYP2A6 over CYP3A4; assay: Selectivity for CYP2A6 over CYP3A4; settings: human
[6] = target: Cytochrome P450 2C9 (Homo sapiens, UniProt P11712); assay: Inhibition of human CYP2C9
[7] = (§1) Stability in mouse liver microsome
[8] = target: Cytochrome P450 2D6 (Homo sapiens, UniProt P10635); assay: Inhibition of human CYP2D6
[9] = target: Cytochrome P450 2C19 (Homo sapiens, UniProt P33261); assay: Inhibition of human CYP2C19
[10] = system: CYP2A6 over CYP2C19; assay: Selectivity for CYP2A6 over CYP2C19; settings: human
[11] = Stability in human liver microsome
[12] = system: CYP2A6 over CYP2C9; assay: Selectivity for CYP2A6 over CYP2C9; settings: human
[13] = system: CYP2A6 over CYP2D6; assay: Selectivity for CYP2A6 over CYP2D6; settings: human
[14] = target: T2, Cytochrome P450 2B6 (Homo sapiens, UniProt P20813); assay: Inhibition of human CYP2B6
T2 sequence (P20813 whole entry): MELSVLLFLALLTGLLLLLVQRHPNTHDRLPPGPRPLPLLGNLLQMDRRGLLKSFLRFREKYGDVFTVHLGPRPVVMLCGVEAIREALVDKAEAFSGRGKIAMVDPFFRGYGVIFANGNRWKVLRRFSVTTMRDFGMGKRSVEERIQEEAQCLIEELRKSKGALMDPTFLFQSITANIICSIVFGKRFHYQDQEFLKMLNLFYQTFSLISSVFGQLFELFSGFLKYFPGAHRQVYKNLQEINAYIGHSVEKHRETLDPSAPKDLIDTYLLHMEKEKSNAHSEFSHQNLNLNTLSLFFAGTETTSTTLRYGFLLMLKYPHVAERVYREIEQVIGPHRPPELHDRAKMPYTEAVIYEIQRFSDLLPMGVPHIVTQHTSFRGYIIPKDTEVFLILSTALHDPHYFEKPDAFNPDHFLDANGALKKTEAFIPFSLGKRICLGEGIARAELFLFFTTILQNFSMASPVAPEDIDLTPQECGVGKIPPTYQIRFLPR

[15] = system: CYP2A6 over CYP2E1; assay: Selectivity for CYP2A6 over CYP2E1; settings: human
[16] = species on record: Mus musculus; assay: as §1; settings: microsomes

Cytochrome P450 2C19, sequence (P33261 whole entry): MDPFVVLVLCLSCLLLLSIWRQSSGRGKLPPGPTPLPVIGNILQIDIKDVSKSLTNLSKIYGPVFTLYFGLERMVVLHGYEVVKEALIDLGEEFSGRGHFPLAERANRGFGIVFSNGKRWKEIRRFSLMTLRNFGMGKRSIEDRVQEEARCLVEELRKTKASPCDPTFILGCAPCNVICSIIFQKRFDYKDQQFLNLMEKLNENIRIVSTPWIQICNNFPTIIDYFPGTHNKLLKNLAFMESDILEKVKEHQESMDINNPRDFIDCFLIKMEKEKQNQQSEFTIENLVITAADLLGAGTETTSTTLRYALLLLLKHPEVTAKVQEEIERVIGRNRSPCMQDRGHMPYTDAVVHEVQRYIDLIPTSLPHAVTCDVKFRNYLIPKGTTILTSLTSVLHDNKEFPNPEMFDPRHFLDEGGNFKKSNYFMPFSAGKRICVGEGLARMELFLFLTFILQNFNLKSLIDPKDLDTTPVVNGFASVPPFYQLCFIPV
Cytochrome P450 2C9, sequence (P11712 whole entry): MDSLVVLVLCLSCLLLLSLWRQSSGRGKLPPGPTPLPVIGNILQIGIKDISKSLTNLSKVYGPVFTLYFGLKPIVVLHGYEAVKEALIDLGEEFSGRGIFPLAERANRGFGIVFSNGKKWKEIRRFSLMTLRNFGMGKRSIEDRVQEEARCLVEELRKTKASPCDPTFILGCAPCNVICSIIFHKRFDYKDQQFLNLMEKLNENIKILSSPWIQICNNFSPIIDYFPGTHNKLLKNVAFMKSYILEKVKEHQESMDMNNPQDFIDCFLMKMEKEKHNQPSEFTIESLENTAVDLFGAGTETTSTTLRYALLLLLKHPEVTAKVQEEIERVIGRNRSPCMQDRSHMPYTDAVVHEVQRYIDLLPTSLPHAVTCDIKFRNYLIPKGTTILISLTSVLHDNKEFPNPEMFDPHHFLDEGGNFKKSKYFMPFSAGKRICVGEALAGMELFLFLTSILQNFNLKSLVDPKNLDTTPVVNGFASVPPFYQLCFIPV
Cytochrome P450 2E1, sequence (P05181 whole entry): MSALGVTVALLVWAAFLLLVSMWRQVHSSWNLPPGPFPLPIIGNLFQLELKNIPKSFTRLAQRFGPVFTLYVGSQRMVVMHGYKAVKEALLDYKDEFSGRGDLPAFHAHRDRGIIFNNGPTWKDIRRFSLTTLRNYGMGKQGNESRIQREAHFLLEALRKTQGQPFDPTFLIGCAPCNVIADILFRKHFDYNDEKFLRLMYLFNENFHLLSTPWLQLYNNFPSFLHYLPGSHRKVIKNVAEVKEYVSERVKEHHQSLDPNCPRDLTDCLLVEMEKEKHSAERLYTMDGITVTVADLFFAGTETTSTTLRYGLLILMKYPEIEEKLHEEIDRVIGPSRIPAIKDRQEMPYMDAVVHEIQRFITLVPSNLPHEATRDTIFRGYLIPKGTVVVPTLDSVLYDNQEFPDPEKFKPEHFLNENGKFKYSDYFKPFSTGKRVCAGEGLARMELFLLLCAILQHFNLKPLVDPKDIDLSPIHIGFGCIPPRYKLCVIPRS
Cytochrome P450 2D6, sequence (P10635 whole entry): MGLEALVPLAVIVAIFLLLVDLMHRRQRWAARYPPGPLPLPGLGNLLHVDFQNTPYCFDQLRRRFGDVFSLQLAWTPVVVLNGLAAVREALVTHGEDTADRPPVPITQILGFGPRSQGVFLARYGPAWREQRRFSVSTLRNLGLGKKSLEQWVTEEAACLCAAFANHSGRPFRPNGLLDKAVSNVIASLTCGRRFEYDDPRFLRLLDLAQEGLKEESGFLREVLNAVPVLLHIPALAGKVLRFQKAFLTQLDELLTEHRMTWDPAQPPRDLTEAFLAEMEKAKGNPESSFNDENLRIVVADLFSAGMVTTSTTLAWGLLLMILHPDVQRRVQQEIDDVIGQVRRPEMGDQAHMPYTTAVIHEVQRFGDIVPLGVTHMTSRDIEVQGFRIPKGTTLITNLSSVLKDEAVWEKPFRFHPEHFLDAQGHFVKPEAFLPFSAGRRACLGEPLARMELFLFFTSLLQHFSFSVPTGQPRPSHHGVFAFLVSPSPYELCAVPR
Cytochrome P450 3A4, sequence (P08684 whole entry): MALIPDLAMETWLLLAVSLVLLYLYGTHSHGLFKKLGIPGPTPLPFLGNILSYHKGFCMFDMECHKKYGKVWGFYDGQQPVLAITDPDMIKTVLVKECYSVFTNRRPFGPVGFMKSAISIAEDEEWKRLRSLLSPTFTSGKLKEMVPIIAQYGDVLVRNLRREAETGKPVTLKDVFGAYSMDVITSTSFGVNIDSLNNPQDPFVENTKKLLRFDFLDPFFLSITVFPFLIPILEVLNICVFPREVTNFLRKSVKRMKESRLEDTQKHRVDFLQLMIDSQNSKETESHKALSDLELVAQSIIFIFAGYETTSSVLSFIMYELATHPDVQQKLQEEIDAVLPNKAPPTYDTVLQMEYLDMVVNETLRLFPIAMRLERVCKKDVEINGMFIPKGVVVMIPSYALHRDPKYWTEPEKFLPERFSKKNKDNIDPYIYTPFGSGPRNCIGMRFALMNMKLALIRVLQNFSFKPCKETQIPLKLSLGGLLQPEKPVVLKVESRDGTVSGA

CNCC#Cc1cccnc1
pKi [1]: 3.60 | pKi [2]: 5.57 | selectivity ratio [3]: 22.2 | pKi [4]: 3.93 | selectivity ratio [5]: 92.8 | pKi [6]: 5.20 | half-life ([7]; liver microsomes): 2.05 h | pKi [8]: < 3.40 | pKi [9]: 4.79 | selectivity ratio [10]: 6.1 | half-life ([11]; liver microsomes): 2.27 h | selectivity ratio [12]: 2.3 | selectivity ratio [13]: > 74 | pKi [14]: 4.22 | selectivity ratio [15]: 43.1

NCc1ccc(-c2cccnc2)o1
pKi [1]: 4.63 | pKi [4]: 4.07 | pKi [6]: 5.23 | half-life ([7]; liver microsomes): 0.617 h | pKi [8]: 5.24 | pKi [9]: 4.96 | selectivity ratio [10]: 81 | half-life ([11]; liver microsomes): 0.617 h | selectivity ratio [12]: 43 | selectivity ratio [13]: 42 | pKi [14]: 4.02

c1cncc(-c2c[nH]cn2)c1
pKi [1]: 4.15 | pKi [2]: 6.10 | selectivity ratio [3]: 69 | pKi [4]: 4.89 | selectivity ratio [5]: 93 | pKi [6]: 4.68 | half-life ([7]; liver microsomes): 11.6 h | pKi [8]: 4.00 | pKi [9]: 4.57 | selectivity ratio [10]: 35 | half-life ([11]; liver microsomes): 11.7 h | selectivity ratio [12]: 28 | selectivity ratio [13]: 133 | pKi [14]: 4.29 | selectivity ratio [15]: 17

Cc1ccsc1-c1cccnc1
half-life ([7]; liver microsomes): 0.683 h | half-life ([11]; liver microsomes): 0.533 h

NCc1ccc(-c2ccccc2)o1
pKi [1]: 4.20 | pKi [2]: 6.22 | selectivity ratio [3]: 6.4 | pKi [4]: 6.10 | selectivity ratio [5]: 105 | pKi [6]: 6.05 | half-life ([7]; microsomes): 0.367 h | pKi [8]: 4.83 | pKi [9]: 4.39 | selectivity ratio [10]: 6.8 | half-life ([11]; microsomes): 0.617 h | selectivity ratio [12]: 1.5 | selectivity ratio [13]: 24.6 | pKi [14]: 5.42 | selectivity ratio [15]: 1.3

CSCc1ccc(-c2cccnc2)o1
pKi [1]: 5.13 | pKi [2]: 6.10 | selectivity ratio [3]: 59 | pKi [4]: 6.10 | selectivity ratio [5]: 9.2 | pKi [6]: 4.85 | half-life ([7]; microsomes): 0.633 h | pKi [8]: 4.19 | pKi [9]: 5.15 | selectivity ratio [10]: 8.8 | half-life ([11]; microsomes): 0.983 h | selectivity ratio [12]: 18 | selectivity ratio [13]: 81 | pKi [14]: 4.33 | selectivity ratio [15]: 0.9

NCc1ccc(-c2ccccc2)s1
pKi [1]: 4.02 | pKi [2]: 6.22 | selectivity ratio [3]: 1.1 | pKi [4]: 7.40 | selectivity ratio [5]: 159 | pKi [6]: 6.30 | half-life ([7]; microsomes): 0.683 h | pKi [8]: < 3.40 | pKi [9]: 6.05 | selectivity ratio [10]: 1.4 | half-life ([11]; microsomes): 1.4 h | selectivity ratio [12]: 0.8 | selectivity ratio [13]: > 333 | pKi [14]: 6.22 | selectivity ratio [15]: 0.1

Cc1cscc1-c1ccccc1
pKi [1]: < 3.40 | pKi [2]: 5.21 | selectivity ratio [3]: 4.2 | pKi [4]: < 3.40 | selectivity ratio [5]: > 400 | pKi [6]: < 3.40 | half-life ([7]; microsomes): 0.617 h | pKi [8]: < 3.40 | pKi [9]: < 3.40 | selectivity ratio [10]: 32.3 | half-life ([11]; microsomes): 1.23 h | selectivity ratio [12]: 33.9 | selectivity ratio [13]: 60.6 | pKi [14]: 5.29 | selectivity ratio [15]: 2.9

NCc1cc(-c2cccnc2)no1
pKi [1]: < 3.40 | pKi [2]: 6.40 | selectivity ratio [3]: 91.1 | pKi [4]: 4.41 | selectivity ratio [5]: > 541 | pKi [6]: 4.84 | half-life ([7]; liver microsomes): 6.42 h | pKi [8]: < 3.40 | pKi [9]: 4.56 | selectivity ratio [10]: 74.3 | half-life ([11]; liver microsomes): 6.68 h | selectivity ratio [12]: 39.1 | selectivity ratio [13]: > 541 | pKi [14]: 4.47 | selectivity ratio [15]: 105

c1cncc(-c2cc[nH]n2)c1
pKi [1]: < 3.40 | pKi [2]: 4.89 | selectivity ratio [3]: 5.6 | pKi [4]: 5.28 | selectivity ratio [5]: > 15.6 | pKi [6]: 3.76 | half-life ([7]; liver microsomes): 1.55 h | pKi [8]: 3.78 | pKi [9]: 3.96 | selectivity ratio [10]: 8.5 | half-life ([11]; liver microsomes): 1.65 h | selectivity ratio [12]: 13.4 | selectivity ratio [13]: 12.9 | pKi [14]: 4.15 | selectivity ratio [15]: 0.4

NCc1ccc(-c2cccnc2)s1
pKi [1]: 4.53 | pKi [4]: 4.70 | half-life ([7]; microsomes): 1 h | pKi [8]: 4.07 | half-life ([11]; microsomes): 0.65 h

CN(C)Cc1ccc(-c2cccnc2)o1
pKi [1]: 3.83 | pKi [4]: < 3.40 | pKi [6]: 3.95 | Stability [16]: Stable | pKi [8]: 3.90 | pKi [9]: 4.10 | pKi [14]: < 3.40

NCc1cc(-c2cccnc2)n[nH]1
pKi [1]: < 3.40 | pKi [2]: 6.52 | selectivity ratio [3]: 114 | pKi [4]: < 3.40 | selectivity ratio [5]: > 690 | pKi [6]: 4.62 | half-life ([7]; liver microsomes): 2.82 h | pKi [8]: 4.53 | pKi [9]: 4.38 | selectivity ratio [10]: 143 | half-life ([11]; liver microsomes): 3.97 h | selectivity ratio [12]: 83.4 | selectivity ratio [13]: 103 | pKi [14]: 4.48 | selectivity ratio [15]: > 690

c1ccc(-c2ccsc2)cc1
pKi [1]: < 3.40 | pKi [2]: 5.48 | selectivity ratio [3]: 0.8 | pKi [4]: 5.01 | selectivity ratio [5]: > 32.3 | pKi [6]: 3.95 | half-life ([7]; liver microsomes): 1.53 h | pKi [8]: < 3.40 | pKi [9]: 3.97 | selectivity ratio [10]: > 32.3 | half-life ([11]; liver microsomes): 5.25 h | selectivity ratio [12]: > 32.3 | selectivity ratio [13]: > 32.3 | pKi [14]: 4.85 | selectivity ratio [15]: > 32.3

Cc1csc(-c2cccnc2)n1
pKi [1]: 4.64 | pKi [2]: 5.39 | selectivity ratio [3]: 10.6 | pKi [4]: 5.02 | selectivity ratio [5]: 5.6 | pKi [6]: 4.29 | half-life ([7]; microsomes): 0.817 h | pKi [8]: < 3.40 | pKi [9]: < 3.40 | selectivity ratio [10]: > 32.3 | half-life ([11]; microsomes): 0.6 h | selectivity ratio [12]: 12.6 | selectivity ratio [13]: > 32.3 | pKi [14]: 4.36 | selectivity ratio [15]: 2.3
